This note sets out measurements from patent publication US20160039936A1, “FIBROBLAST GROWTH FACTOR RECEPTOR INHIBITION FOR THE TREATMENT OF DISEASE” (UNIVERSITY OF MIAMI, priority 2011, published 2016).

In experiment [1] the test system is isolated neonatal rat ventricular cardiac myocytes (NRVM). Briefly: Surface area (hypertrophy) of isolated NRVM, immunocytochemistry and morphometry (Examples 1-2). Format: cell-based. Particulars: for cell surface area: 48 h incubation with the FGF alone. As for the experimental part: (§1) NRVM were isolated using a standard isolation system (Worthington Biochemical Corporation) (Toraason et al., Toxicology, 56(1):107-117, 1989). Hearts from 1-2 day old Sprague Dawley rats (Charles River) were harvested, minced in calcium- and magnesium-free Hank's Balanced Salt Solution (HBSS), and the tissue digested with 50 μg/ml trypsin at 4° C. for 20-24 hours. Soybean trypsin inhibitor in HBSS was added and the tissue was further digested with collagenase (in Leibovitz L-15 medium) under slow rotation (15 rpm) at 37° C. for 45 minutes. Cells were released by gently triturating the suspension 20 times with a standard 10 ml plastic serological pipette and filtering it twice through a cell strainer (70 μm, BD Falcon). Cells were incubated at room temperature for 20 minutes and spun at 100 g for 5 minutes. The cell pellet was resuspended in plating medium [Dulbecco's Modified Eagle Medium (DMEM; Cellgro) with 17% Media 199 (Invitrogen), 15% fetal bovine serum (FBS; Invitrogen) and 1% penicillin/streptomycin solution (P/S; Invitrogen)]. Cells were counted using a hemocytometer.
Cells were plated on glass and plastic surfaces which were coated with laminin (Invitrogen; 10μg/ml in PBS) at room temperature for 1 hour prior to plating. For immunofluorescence analysis, 1×10^6 cells were seeded per well on glass coverslips in 6-well plates. For protein and RNA isolation, 2×10^6 cells were seeded in 6 cm-culture dishes. Cells were left undisturbed in plating medium at 37° C. for 72 hours and then cultured in maintenance medium (DMEM with 20% Media 199, 1% insulin-transferrin-sodium selenite solution (ITS; Sigma-Aldrich) and 1% P/S) in the presence of 100 μM 5-bromo-2′-deoxyuridine (BrdU; Sigam-Aldrich) to eliminate proliferating non-myocytes resulting in a relatively pure population of isolated cardiac myocytes (Bishopric et al., 1987). After 4 days, isolated cardiac myocytes were cultured in BrdU-containing maintenance medium in the presence of recombinant murine FGF23 (26.1 kDa, 251 amino acids; R&D Systems) or FGF2 (16.2 kDa, 144 amino acids; R&D Systems) for 48 hours.
We analyzed isolated NRVM on laminin-coated glass coverslips by immunocytochemsitry according to our established protocols (Faul et al., Cell Biol., 169(3):415-424, 2005; Faul et al., Cell Biol., 27(23):8215-8227, 2007). The mouse monoclonal antibody against sarcomeric α-actinin (EA-53; Sigma-Aldrich) was used at 1:1000 and Cy3-conjugated goat-anti mouse (Jackson Immuno Research) as secondary antibody at 1:750. To visualize nuclei, fixed cells were incubated with 4′,6-diamidino-2-phenylindole (DAPI; 400 ng/ml in PBS) for 5 minutes. Immunofluorescence images were taken on a Leica TCS-SP5 confocal microscope with a 63× oil objective with a 1.6× zoom. Leica AF6000 fluorescence software was used to measure the cell surface area based on α-actinin-positive staining.
To assess the signaling pathways involved in FGF23- and FGF2-mediated hypertrophy, we analyzed the morphometry of plated cells that were pre-treated with specific inhibitors for 60 minutes prior to the addition of the FGFs at varying concentrations.

Experiment [2] has as its system isolated NRVM. As to the kind of experiment: Cross-sectional area (hypertrophy) of isolated NRVM with receptor antagonists (Example 4). It counts as cell-based, rat. The note with it: for cross-sectional area of isolated NRVM: 48 h, FGF alone 25 ng/ml vs PBS. As for the experimental part: as §1, with “(Faul” for “(Toraason”, “2011).” for “Toxicology, 56(1):107-117, 1989).”, “rats” for “rats (Charles River)”, “calcium-and” for “calcium- and”, “added,” for “added”, “by” for “by gently”
Cells were plated on glass and plastic surfaces, which were coated with laminin (Invitrogen; 10 μg/ml in PBS) at room temperature for 1 hour prior to plating. For immunofluorescence analysis, 3×10^5 cells were seeded per well on glass coverslips in 24-well plates. For Western blot or qPCR analyses of total extracts, 1×10^6 cells were seeded per well in 6-well plates, and for immunoprecipitation assays, 5×10^6 cells were seeded in 10 cm-culture dishes. Cells were left undisturbed in plating medium at 37° C. for 72 hours and then cultured in maintenance medium (DMEM with 20% Media 199, 1% insulin-transferrin-sodium selenite solution [ITS; Sigma-Aldrich] and 1% P/S) in the presence of 100 μM 5-bromo-2′-deoxyuridine (BrdU; Sigam-Aldrich). After 4 days, isolated cardiac myocytes were cultured in BrdU-containing maintenance medium in the presence of recombinant murine FGF23 or FGF2 (both at 25 ng/ml) for different time points.
Cultured cells were fixed in 2% PFA (in 5 mg/ml sucrose) for 5 minutes and permeabilized in 1% Triton X-100 (in PBS) for 10 minutes. We analyzed hypertrophic growth of isolated NRVM and NMVM on laminin-coated glass coverslips after 48 hours of treatment with growth factors. For FGFR4 expression and localization analyses, untreated NMVM from wild-type and FGFR4^−/− mice were immunolabeled. The mouse monoclonal antibody against sarcomeric α-actinin (EA-53; Sigma-Aldrich) was used at 1:1,000, and rabbit polyclonal anti-FGFR4 (C-16; Santa Cruz) at 1:50. Cy3-conjugated goat-anti mouse and Alexa488-conjugated goat-anti rabbit (Jackson Immuno Research) were used as secondary antibodies at 1:300. To visualize nuclei, fixed cells were incubated with 4′,6-diamidino-2-phenylindole (DAPI; 400 ng/ml in PBS) for 10 minutes. Immunofluorescence images were taken on a Leica TCS-SP5 confocal microscope with a 63× oil objective.
Myocyte cross-sectional area was measured based on α-actinin-positive staining using Leica AF6000 fluorescence software. To assess the signaling pathways involved in FGF23- and FGF2-mediated hypertrophy, we analyzed the morphometry of plated cells that were pre-treated with specific inhibitors for 60 minutes prior to the addition of the FGFs at 25 ng/ml (NRVMs) or at 100 ng/ml (NMVMs). The following inhibitors and concentrations were used: pan-FGFR, PD173074 (Sigma-Aldrich) at 10 nM; FGFR1-3, AZD4547 (ChemieTek) at 5 nM; and FGFR4 blocking antibody (human monoclonal, U3-11; U3Pharma) at 10 μg/ml.

As for `CCN(CC)CCCCNc1ncc2cc(-c3cc(OC)cc(OC)c3)c(NC(=O)NC(C)(C)C)nc2n1` [PD173074], in experiment [1] (48 h FGF2, inhibitor pre-treated 60 min at Table 2 concentration), the “FGF2-induced increase in cell surface area (hypertrophy) in presence of inhibitor” value was “completely blocked”. Besides, the “FGF23-induced increase in cell surface area (hypertrophy) in presence of inhibitor” value in experiment [1] (48 h FGF23, inhibitor pre-treated 60 min at Table 2 concentration) is reported as “completely blocked”. Further, the “FGF2-induced hypertrophy (cross-sectional area) with receptor antagonist” value in experiment [2] (NRVM 48 h, FGF2 25 ng/ml, PD173074 10 nM, AZD4547 5 nM, anti-FGFR4 10 μg/ml) was “inhibited”. Also, in experiment [2] (NRVM 48 h, FGF23 25 ng/ml, PD173074 10 nM, AZD4547 5 nM, anti-FGFR4 10 μg/ml), the “FGF23-induced hypertrophy (cross-sectional area) with receptor antagonist” value was “inhibited”.

B1: FGF2: recombinant mouse FGF2 (Ala11-Ser154) (R&D Systems) (protein)
chain: ALPEDGGAAFPPGHFKDPKRLYCKNGGFFLRIHPDGRVDGVREKSDPHVKLQLQAEERGVVSIKGVCANRYLAMKEDGRLLASKCVTEECFFFERLESNNYNTYRSRKYSSWYVALKRTGQYKLGSKTGPGQKAILFLPMSAKS
Consider B1, for which the cell surface area result in experiment [1] is recorded as “significant increase”. For the same molecule, the “cross-sectional area of isolated NRVM” value in experiment [2] is “significantly increases”.

B2: FGF23: recombinant mouse FGF23, 6His-tagged Tyr25-Val251 (Arg179Gln) (R&D Systems) (protein)
chain: YPDTSPLLGSNWGSLTHLYTATARTSYHLQIHRDGHVDGTPHQTIYSALMITSEDAGSVVITGAMTRRFLCMDLHGNIFGSLHFSPENCKFRQWTLENGYDVYLSQKHHYLVSLGRAKRIFQPGTNPPPFSQFLARRNEVPLLHFYTVRPRRHTQSAEDPPERDPLNVLKPRPRATPVPVSCSRELPSAEEGGPAASDPLGVLRRGRGDARGGAGGADRCRPFPRFV
modifications: left off: small tags and cut ends
On to B2, for which the cell surface area entry in experiment [1] is reported as “significant increase”. Moreover, in experiment [2], the “cross-sectional area of isolated NRVM” value is “significantly increases”.
